Literature values in PMC13112601 (International journal of biological macromolecules, 2026).

Legend:
ERRα = biological target: T1, ERRα (Homo sapiens, UniProt P11474); conditions: previously reported
T1 construct: Full-length ERRα (A) and ERRγ (B) transfection assay results in HEK293 cells; host or cells: HEK293
T1 sequence (P11474 1-423): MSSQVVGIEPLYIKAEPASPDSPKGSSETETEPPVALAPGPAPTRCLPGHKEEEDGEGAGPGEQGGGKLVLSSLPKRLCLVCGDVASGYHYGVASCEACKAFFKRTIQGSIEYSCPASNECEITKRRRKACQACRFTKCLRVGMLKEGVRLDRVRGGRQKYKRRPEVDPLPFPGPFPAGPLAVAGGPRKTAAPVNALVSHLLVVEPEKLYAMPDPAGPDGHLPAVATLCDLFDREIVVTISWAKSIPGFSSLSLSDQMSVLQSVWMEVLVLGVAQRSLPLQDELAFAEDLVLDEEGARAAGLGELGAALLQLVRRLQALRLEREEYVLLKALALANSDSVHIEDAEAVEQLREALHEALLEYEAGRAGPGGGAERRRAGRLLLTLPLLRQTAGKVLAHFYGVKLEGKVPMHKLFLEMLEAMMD

ERRγ = biological target: T2, ERRγ (Homo sapiens, UniProt P62508); conditions: previously reported
T2 construct: Full-length ERRα (A) and ERRγ (B) transfection assay results in HEK293 cells; host or cells: HEK293
T2 sequence (P62508 1-458): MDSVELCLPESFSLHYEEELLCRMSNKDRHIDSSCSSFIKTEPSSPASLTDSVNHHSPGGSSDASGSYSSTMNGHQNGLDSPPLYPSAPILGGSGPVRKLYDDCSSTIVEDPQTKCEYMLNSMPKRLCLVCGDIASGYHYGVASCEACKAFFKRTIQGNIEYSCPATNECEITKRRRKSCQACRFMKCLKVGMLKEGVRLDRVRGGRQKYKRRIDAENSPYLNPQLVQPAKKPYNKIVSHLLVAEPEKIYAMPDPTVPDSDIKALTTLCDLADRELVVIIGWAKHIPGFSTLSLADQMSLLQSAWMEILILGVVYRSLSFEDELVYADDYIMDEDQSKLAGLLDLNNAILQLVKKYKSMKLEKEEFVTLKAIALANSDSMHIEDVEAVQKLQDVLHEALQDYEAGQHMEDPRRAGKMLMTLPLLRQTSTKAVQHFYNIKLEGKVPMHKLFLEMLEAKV

Cc1ccc(C(=O)N/N=C/c2ccccc2)cc1 [BE5082, (E)-N′-Benzylidene-4-methylbenzohydrazide]
EC50 (ERRα): 209 nM
EC50 (ERRγ): 194 nM
